According to US20160338935A1, “PROCESS FOR THE PURIFICATION OF HEPARAN SULFATE AND USE THEREOF IN COSMETOLOGICAL AND DERMATOLOGICAL PREPARATIONS” (LABORATORI DERIVATI ORGANICI SPA, priority 2008, published 2016):

Assays:
basophil cells = test: In vitro degranulation test on basophil cells (release of β-hexosaminidase); format: cell-based
Procedure: Basophil cells, when come in contact with irritant substances, give their biochemical response that is the secretion (by degranulation) of substances (such as histamine, leukotriens, proteolytic enzymes as hexosaminidase) that contribute to inflammatory events.
Inhibition in basophil cells degranulation is a measure of lenitive (anti-itching) effect of a substance. The in vitro lenitive effect of HS was detected by measurement of the release of β-hexosaminidase after 2 h of contact with HS at 4 different concentrations: 10 mg/ml (1%), 5 mg/ml (0.5%), 1 mg/ml (0.1%), 0.2 mg/ml (0.02%).
The negative control (NC) was represented by untreated cells (cells without any substance). The positive control (PC) was represented by basophil degranulation stimuli (by crosslinking the receptor FcεRI with a specific polyclonal antibody against to the α-chain stimulate the degranulation). The maximal stimulation (degranulation) is: cell treated with 1% Triton X-100. […]

[1] = tested on: human keratinocytes cell cultures; test: In vitro anti-oxidant activity against UVA: ROS reduction on human keratinocytes cell cultures; format: cell-based; settings: for inhibition at 150 µg/mL: Homo sapiens, Keratinocyte, light or radiation study, Vit C 0.15 mg/ml
Procedure: In vitro Evaluation of the anti-ageing activity of cosmetic products through the investigation of their anti-oxidant and protective activity against UVA on human keratinocytes cell cultures. The antioxidant effect of HS is detected by measurement of reduction of free radicals as Reactive Oxygen Species (ROS) after exposure to 3 different UVA irradiation for 1 minute and 30 seconds (1′ 30″), for 3 minutes (3′) and for 4 minutes and 30 seconds (4′ 30″), with HS at 7 different concentrations: 0.031 mg/ml (0.0031%), 0.063 mg/ml (0.0063%), 0.125 mg/ml (0.0125%), 0.250 mg/ml (0.0250%), 0.500 mg/ml (0.0500%), 1.000 mg/ml (0.1000%) and […]. The negative control (NC) was: untreated cells (cells without any substance). The positive control (PC) was: Vitamin C (0.15 mg/ml) (0.015%).

melanoma cells B16 = test: In vitro bleaching (whitening) activity: melanin content on melanoma cells B16; format: cell-based
Procedure: The in vitro whitening effect of HS was detected by measurement of melanin content on melanoma cells B16 (fibroblast-like cells able to produce melanin) after 6 days of contact with HS at 2 different concentrations: 0.1 mg/ml (0.01%) and 0.05 mg/ml (0.005%).
The negative control (NC) was represented by untreated cells (cell without any substance). The positive control (PC) was represented by cells treated with Hydroquinone 5 μg/ml (0.0005%).

fibroblast cells = test: In vitro mitogenic activity: fibroblast cells proliferation and protein synthesis; format: cell-based
Procedure: The mitogenic effect of HS is detected by measurement of fibroblast cells proliferation, measurement of protein synthesis after exposure for 48 hours and 72 hours, using HS at 2 different concentrations: 0.1 mg/ml (0.01%) and 0.05 mg/ml (0.005%). The negative control (NC) is represented by untreated cells, the positive control (PC) is: EGF (Epidermal Growth Factor) (10 μg/ml) (0.001%).

[2] = APTT (European Pharmacopeia, 4th edition); settings: purified heparan sulfate
Procedure: Organic sulfur, Uronic acid, Glucosamine, Optical rotation, total nitrogen and APTT were measured in accordance with the European Pharmacopeia, 4th edition. Electrophoresis was performed in accordance with R. Cappelletti et al. “A new Electrophoretic method for the separation of all Gags” Anal. Biochem. 99:311-315 (1979).

[3] = Hydroquinone 0.0005% (5 μg/ml), positive control
[4] = HS 0.005% (0.05 mg/ml), 6 days of contact
[5] = HS 0.01% (0.1 mg/ml), 6 days of contact

## Triton X-100 [reference compound]
Basophil cells; maximal stimulation: 1% Triton X-100
  release of β-hexosaminidase OD at 450 nm: 0.377 OD

## O=C1O[C@H]([C@@H](O)CO)C(O)=C1O [Vit C, Vitamin C, reference compound]
[1]; 1′30″ UVA
  inhibition at 150 µg/mL: 33.5%
[1]; 3′00″ UVA
  inhibition at 150 µg/mL: 31.4%
[1]; 4′30″ UVA
  inhibition at 150 µg/mL: 12.7%

## Oc1ccc(O)cc1 [Hydroquinone, reference compound]
Melanoma cells B16; [3]
  % Melanin Synthesis Inhibition vs NC: 76.8%
  Melanin Content (μg melanin/mg protein): 10.8 μg melanin/mg protein

## heparan sulphate sodium salt [HS]
Melanoma cells B16; 0.1 and 0.05 mg/ml, 6 days
  in vitro whitening effect: shows in vitro whitening effect
Melanoma cells B16; [4]
  % Melanin Synthesis Inhibition vs NC: 5.2%
  Melanin Content (μg melanin/mg protein): 44.4 μg melanin/mg protein
Melanoma cells B16; [5]
  % Melanin Synthesis Inhibition vs NC: 10.3%
  Melanin Content (μg melanin/mg protein): 41.9 μg melanin/mg protein
Fibroblast cells; 48 h, HS 0.05 mg/ml (0.005%)
  % cell proliferation vs NC: 106.7%
  % protein synthesis vs NC: 110.2%
Fibroblast cells; 48 h, HS 0.1 mg/ml (0.01%)
  % cell proliferation vs NC: 110.5%
  % protein synthesis vs NC: 103.1%
Fibroblast cells; 72 h, HS 0.05 mg/ml (0.005%)
  % cell proliferation vs NC: 118.2%
  % protein synthesis vs NC: 120.4%
Fibroblast cells; 72 h, HS 0.1 mg/ml (0.01%)
  % cell proliferation vs NC: 118.1%
  % protein synthesis vs NC: 113.2%
Fibroblast cells; 72 hour, 0.05 mg/ml
  highest effect for cell proliferation (increase over NC): 18.2%
  highest effect for protein synthesis (increase over NC): 20.4%
Basophil cells; HS 0.2 mg/ml + PC (degranulation stimulus)
  release of β-hexosaminidase OD at 450 nm: 0.112 OD
Basophil cells; HS 0.2 mg/ml alone, 2 h of contact
  release of β-hexosaminidase OD at 450 nm: 0.061 OD
Basophil cells; HS 1 mg/ml + PC (degranulation stimulus)
  release of β-hexosaminidase OD at 450 nm: 0.110 OD
Basophil cells; HS 1 mg/ml alone, 2 h of contact
  release of β-hexosaminidase OD at 450 nm: 0.062 OD
Basophil cells; HS 5 mg/ml + PC (degranulation stimulus)
  release of β-hexosaminidase OD at 450 nm: 0.055 OD
Basophil cells; HS 5 mg/ml alone, 2 h of contact
  release of β-hexosaminidase OD at 450 nm: 0.059 OD
Basophil cells; HS 10 mg/ml + PC (degranulation stimulus)
  release of β-hexosaminidase OD at 450 nm: 0.061 OD
Basophil cells; HS 10 mg/ml alone, 2 h of contact
  release of β-hexosaminidase OD at 450 nm: 0.066 OD
Basophil cells; HS + PC, best efficacy at 0.5% and 1%
  level of β-hexosaminidase with irritant substance (positive control) and HS: decrease in a dose dependent way
Basophil cells; HS alone at different concentration
  effect on basophil cells degranulation: no effect on basophil cells degranulation
[1]; 1′30″ UVA, HS 0.031 mg/ml
  ROS Inhibition %: 25.3%
[1]; 1′30″ UVA, HS 0.063 mg/ml
  ROS Inhibition %: 25.4%
[1]; 1′30″ UVA, HS 0.125 mg/ml
  ROS Inhibition %: 23.5%
[1]; 1′30″ UVA, HS 0.250 mg/ml
  ROS Inhibition %: 28.0%
[1]; 1′30″ UVA, HS 0.500 mg/ml
  ROS Inhibition %: 30.6%
[1]; 1′30″ UVA, HS 1.000 mg/ml
  ROS Inhibition %: 38.7%
[1]; 1′30″ UVA, HS 9.000 mg/ml
  ROS Inhibition %: 30.7%
[1]; 3′00″ UVA, HS 0.031 mg/ml
  ROS Inhibition %: 20.1%
[1]; 3′00″ UVA, HS 0.063 mg/ml
  ROS Inhibition %: 21.8%
[1]; 3′00″ UVA, HS 0.125 mg/ml
  ROS Inhibition %: 14.2%
[1]; 3′00″ UVA, HS 0.250 mg/ml
  ROS Inhibition %: 22.9%
[1]; 3′00″ UVA, HS 0.500 mg/ml
  ROS Inhibition %: 29.1%
[1]; 3′00″ UVA, HS 1.000 mg/ml
  ROS Inhibition %: 35.7%
[1]; 3′00″ UVA, HS 9.000 mg/ml
  ROS Inhibition %: 31.6%
[1]; 4′30″ UVA, HS 0.031 mg/ml
  ROS Inhibition %: 6.2%
[1]; 4′30″ UVA, HS 0.063 mg/ml
  ROS Inhibition %: 13.7%
[1]; 4′30″ UVA, HS 0.125 mg/ml
  ROS Inhibition %: 10.3%
[1]; 4′30″ UVA, HS 0.250 mg/ml
  ROS Inhibition %: 18.1%
[1]; 4′30″ UVA, HS 0.500 mg/ml
  ROS Inhibition %: 24.7%
[1]; 4′30″ UVA, HS 1.000 mg/ml
  ROS Inhibition %: 30.4%
[1]; 4′30″ UVA, HS 9.000 mg/ml
  ROS Inhibition %: 26.3%
[1]; HS at 0.1% concentration
  antioxidant efficacy compared with Vitamin C: comparable or even higher than the efficacy of Vitamin C
[2]
  APTT: 6.31 U/mg

## EGF: EGF (Epidermal Growth Factor), positive control [reference compound]
Fibroblast cells; 48 h, EGF 10 μg/ml (0.001%)
  % cell proliferation vs NC: 112.5%
  % protein synthesis vs NC: 116.6%
Fibroblast cells; 72 h, EGF 10 μg/ml (0.001%)
  % cell proliferation vs NC: 121.6%
  % protein synthesis vs NC: 119.0%
